Measured values: US20260250318A1, “COMPOSITIONS AND METHODS FOR CROSSING THE BLOOD BRAIN BARRIER” (VOYAGER THERAPEUTICS, INC., priority 2022, published 2026)

Tested on: brain
Test: NGS fold enrichment of synthetic library (passage 3) in C57Bl/6 mice, first cross-species screen
Format: in vivo
Details: synthetic library passage 3, intravenous, RNA NGS, brain of C57Bl/6 mice, relative to wild-type AAV9
Procedure: (§1) After creation of the synthetic library with the sub-selected variants, the synthetic library was screened (passage 3) in two NHPs (2-4 years of age) and two strains of mice, BALB/c (n=3, 6-8 weeks of age) and C57Bl/6 mice (n=3, 6-8 weeks of age), in a first cross-species evolution screen. The animals were injected intravenously with the synthetic library. After a period in vivo, (e.g., 28-days) RNA was extracted from nervous tissue, e.g., brain, spinal cord, and DRG of the NHPs and the brains of mice. Following RNA recovery and RT-PCR amplification, a systematic NGS enrichment analysis was performed, and the peptides comprised within the variants were identified and the capsid enrichment ratio for each variant compared to the wild-type AAV9 control was calculated (fold enrichment relative to wild-type AAV9) (Table 9). […] All animals were dosed intravenously at […] across the screen.

Row | Sequence | Fold enrichment over AAV9 in the brain of Mice (C57Bl/6) [fold]
1 | GSGQNQKILTLDQT | 0.291
2 | GSGDTLHMLQNQQT | 0.393
3 | GSGEAARYEQNQQT | 0.107
4 | GSGQNQYSIPVAQT | 0.511
5 | GRAVMDHSGQNQQT | 0.728
6 | GPPQHMTSGQNQQT | 0.509
7 | GSGMIIASMQNQQT | 1.135
8 | GSGQSREISLNQQT | 0.594
9 | GVVAAHNSGQNQQT | 1.196
10 | GSLIGMQSGQNQQT | 0.797
11 | GSTPAGVGGQNQQT | 0.593
12 | GSGLKWSTLQNQQT | 1.134
13 | GANMGHVSGQNQQT | 1.302
14 | GERAFPTSGQNQQT | 0.972
15 | GSHGHYASGQKQQT | 0.895
16 | GSLHHDNHGQNQQT | 0.968

Same assay, conditions: synthetic library passage 3, intravenous, RNA from brain of C57Bl/6 mice, NGS, relative to wild-type AAV9

Row | Sequence | Fold enrichment over AAV9 in the brain of Mice (C57Bl/6) [fold]
17 | GSSREFHSGQNQQT | 0.688
18 | GSGQNQKGMQPNQT | 0.775
19 | GSGQTRMPLANQQT | 0.447
20 | GSGQNQALVSMGQT | 0.987
21 | GSGVSTQLLQNQQT | 0.928
22 | GSGLKPNVLQNQQT | 0.701
23 | GSGTSGKTGKNQQT | 0.358
24 | GSGQNQQSANKILT | 0.894
25 | GQLGSVGSGQDQQT | 1.020
26 | GQLVTFTSGQNQQT | 0.819

Tested on: brain, spinal cord, and DRG of the NHPs
Test: NGS fold enrichment of synthetic library (passage 3) in NHPs, first cross-species screen
Format: in vivo, cynomolgus macaques (Macaca fascicularis)
Details: synthetic library passage 3, intravenous, RNA NGS, brain of NHPs, relative to wild-type AAV9
Procedure: as §1

Row | Sequence | Fold enrichment over AAV9 in the brain of NHPs [fold]
27 | GSGQNQKILTLDQT | 1.080
28 | GSGDTLHMLQNQQT | 3.317
29 | GSGEAARYEQNQQT | 1.020
30 | GSGQNQYSIPVAQT | 1.891
31 | GRAVMDHSGQNQQT | 2.408
32 | GPPQHMTSGQNQQT | 1.457
33 | GSGMIIASMQNQQT | 1.469
34 | GSGQSREISLNQQT | 1.088
35 | GVVAAHNSGQNQQT | 2.202
36 | GSLIGMQSGQNQQT | 1.656
37 | GSTPAGVGGQNQQT | 1.663
38 | GSGLKWSTLQNQQT | 1.556
39 | GANMGHVSGQNQQT | 2.020
40 | GERAFPTSGQNQQT | 1.775
41 | GSHGHYASGQKQQT | 2.016
42 | GSLHHDNHGQNQQT | 1.976

Same assay, conditions: synthetic library passage 3, intravenous, RNA NGS, spinal cord of NHPs, relative to wild-type AAV9

Row | Sequence | Fold enrichment over AAV9 in the spinal cord of NHPs [fold]
43 | GSGQNQKILTLDQT | 0.371
44 | GSGDTLHMLQNQQT | 1.174
45 | GSGEAARYEQNQQT | 0.000
46 | GSGQNQYSIPVAQT | 1.194
47 | GRAVMDHSGQNQQT | 3.209
48 | GPPQHMTSGQNQQT | 1.547
49 | GSGMIIASMQNQQT | 6.722
50 | GSGQSREISLNQQT | 6.954
51 | GVVAAHNSGQNQQT | 1.301
52 | GSLIGMQSGQNQQT | 6.783
53 | GSTPAGVGGQNQQT | 2.733
54 | GSGLKWSTLQNQQT | 0.000
55 | GANMGHVSGQNQQT | 0.810
56 | GERAFPTSGQNQQT | 6.515
57 | GSHGHYASGQKQQT | 0.000
58 | GSLHHDNHGQNQQT | 0.980

Same assay, conditions: synthetic library passage 3, intravenous, RNA from brain of NHPs, NGS, relative to wild-type AAV9

Row | Sequence | Fold enrichment over AAV9 in the brain of NHPs [fold]
59 | GSSREFHSGQNQQT | 1.203
60 | GSGQNQKGMQPNQT | 1.326
61 | GSGQTRMPLANQQT | 1.296
62 | GSGQNQALVSMGQT | 1.255
63 | GSGVSTQLLQNQQT | 1.367
64 | GSGLKPNVLQNQQT | 1.263
65 | GSGTSGKTGKNQQT | 1.333
66 | GSGQNQQSANKILT | 1.331
67 | GQLGSVGSGQDQQT | 1.196
68 | GQLVTFTSGQNQQT | 1.331

Same assay, conditions: synthetic library passage 3, intravenous, RNA from spinal cord of NHPs, NGS, relative to wild-type AAV9

Row | Sequence | Fold enrichment over AAV9 in the spinal cord of NHPs [fold]
69 | GSSREFHSGQNQQT | 1.591
70 | GSGQNQKGMQPNQT | 3.139
71 | GSGQTRMPLANQQT | 0.790
72 | GSGQNQALVSMGQT | 1.876
73 | GSGVSTQLLQNQQT | 2.467
74 | GSGLKPNVLQNQQT | 0.975
75 | GSGTSGKTGKNQQT | 4.033
76 | GSGQNQQSANKILT | 3.789
77 | GQLGSVGSGQDQQT | 0.000
78 | GQLVTFTSGQNQQT | 11.282

Tested on: brain
Test: NGS fold enrichment of synthetic library (passage 3) in BALB/c mice, first cross-species screen
Format: in vivo
Details: synthetic library passage 3, intravenous, RNA NGS, brain of BALB/c mice, relative to wild-type AAV9
Procedure: as §1

Row | Sequence | Fold enrichment over AAV9 in the brain of Mice (BALB/c) [fold]
79 | GSGQNQKILTLDQT | 0.314
80 | GSGDTLHMLQNQQT | 0.482
81 | GSGEAARYEQNQQT | 0.125
82 | GSGQNQYSIPVAQT | 0.297
83 | GRAVMDHSGQNQQT | 0.283
84 | GPPQHMTSGQNQQT | 0.677
85 | GSGMIIASMQNQQT | 0.415
86 | GSGQSREISLNQQT | 0.282
87 | GVVAAHNSGQNQQT | 1.336
88 | GSLIGMQSGQNQQT | 0.392
89 | GSTPAGVGGQNQQT | 0.477
90 | GSGLKWSTLQNQQT | 2.442
91 | GANMGHVSGQNQQT | 1.138
92 | GERAFPTSGQNQQT | 0.362
93 | GSHGHYASGQKQQT | 0.685
94 | GSLHHDNHGQNQQT | 0.463

Same assay, conditions: synthetic library passage 3, intravenous, RNA from brain of BALB/c mice, NGS, relative to wild-type AAV9

Row | Sequence | Fold enrichment over AAV9 in the brain of Mice (BALB/c) [fold]
95 | GSSREFHSGQNQQT | 0.474
96 | GSGQNQKGMQPNQT | 1.059
97 | GSGQTRMPLANQQT | 0.273
98 | GSGQNQALVSMGQT | 0.560
99 | GSGVSTQLLQNQQT | 0.509
100 | GSGLKPNVLQNQQT | 0.268
101 | GSGTSGKTGKNQQT | 0.676
102 | GSGQNQQSANKILT | 1.236
103 | GQLGSVGSGQDQQT | 0.437
104 | GQLVTFTSGQNQQT | 0.294
